{"source": "patent US20260157376A1", "about": "“METHOD OF CONTROLLING, LIMITING OR PREVENTING OOMYCETES” (priority 2022, published 2026)", "tested_on": "Pythium ultimum", "experiment": "In vitro growth inhibition of Pythium ultimum in PDB nutrient broth, 96-well microtiter plate", "assay_type": "cell-based", "conditions": "24° C., 48 hours", "data": [{"compound": "Monopotassium phosphite", "values": [{"measurement": "Observed efficacy (%)", "setting": "125 ppm", "result": 20, "unit": "%"}, {"measurement": "Observed efficacy (%)", "setting": "250 ppm", "result": 20, "unit": "%"}, {"measurement": "Observed efficacy (%)", "setting": "500 ppm", "result": 20, "unit": "%"}]}, {"compound": "Inpyrfluxam [reference compound]", "values": [{"measurement": "Observed efficacy (%)", "setting": "20 ppm", "result": 0, "unit": "%"}]}, {"compound": "COCC(=O)N(c1c(C)cccc1C)[C@H](C)C(=O)OC", "note": "[Mefenoxam, reference compound]", "values": [{"measurement": "Observed efficacy (%)", "setting": "0.007 ppm", "result": 0, "unit": "%"}, {"measurement": "Observed efficacy (%)", "setting": "0.02 ppm", "result": 20, "unit": "%"}, {"measurement": "Observed efficacy (%)", "setting": "0.06 ppm", "result": 50, "unit": "%"}]}, {"compound": "N.N.O=[PH](O)O", "note": "[Diammonium phosphonate]", "values": [{"measurement": "Observed efficacy (%)", "setting": "500 ppm", "result": 50, "unit": "%"}, {"measurement": "Observed efficacy (%)", "setting": "1000 ppm", "result": 70, "unit": "%"}]}]}
